In patent US7408060B2, “Nonsteroidal progesterone receptor modulators” (Schering AG, priority 2005, dated 2008):

Experiments:
[1] = molecular target: T1, Progesterone Receptor PR-B (Homo sapiens, UniProt P06401); assay: Antagonism of Progesterone Receptor PR-B, transactivation assay; type: cell-based; conditions: PR-B transactivation assay as in WO 02/054064; for IC50: read-out: Antagonistic activity IC50
T1 construct: expressed in transfected cells; From own knowledge of the cited Fuhrmann et al. 2000: SK-N-MC cells stably transfected with PR-B and an MMTV-luciferase reporter
T1 sequence (P06401 1-933): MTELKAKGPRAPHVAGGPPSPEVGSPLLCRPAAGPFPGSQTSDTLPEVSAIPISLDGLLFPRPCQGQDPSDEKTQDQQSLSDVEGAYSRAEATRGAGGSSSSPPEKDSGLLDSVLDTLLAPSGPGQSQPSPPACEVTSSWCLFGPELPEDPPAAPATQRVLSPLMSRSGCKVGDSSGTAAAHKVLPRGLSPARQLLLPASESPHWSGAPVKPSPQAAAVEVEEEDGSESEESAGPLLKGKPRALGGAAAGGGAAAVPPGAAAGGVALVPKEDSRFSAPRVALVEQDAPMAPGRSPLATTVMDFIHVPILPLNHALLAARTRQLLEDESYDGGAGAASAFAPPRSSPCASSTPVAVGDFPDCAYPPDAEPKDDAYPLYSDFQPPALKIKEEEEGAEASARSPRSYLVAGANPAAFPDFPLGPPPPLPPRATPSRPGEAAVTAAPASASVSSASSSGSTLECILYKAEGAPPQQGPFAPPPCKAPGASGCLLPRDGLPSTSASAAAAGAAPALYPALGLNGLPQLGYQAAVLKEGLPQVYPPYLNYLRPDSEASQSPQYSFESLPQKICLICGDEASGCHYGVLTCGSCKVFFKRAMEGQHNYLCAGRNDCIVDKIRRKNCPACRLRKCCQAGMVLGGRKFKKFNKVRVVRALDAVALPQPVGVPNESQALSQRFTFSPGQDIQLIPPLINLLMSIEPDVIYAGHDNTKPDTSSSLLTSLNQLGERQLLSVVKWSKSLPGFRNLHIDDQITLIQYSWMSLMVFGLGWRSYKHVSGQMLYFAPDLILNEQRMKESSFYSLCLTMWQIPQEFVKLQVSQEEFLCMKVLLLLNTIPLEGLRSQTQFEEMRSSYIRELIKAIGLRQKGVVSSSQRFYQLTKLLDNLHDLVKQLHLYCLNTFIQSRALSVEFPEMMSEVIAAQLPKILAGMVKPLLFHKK
Method: Antagonism of Progesterone Receptor PR-B
The transactivation assay is performed as described in WO 02/054064.

[2] = molecular target: T1, Progesterone Receptor PR-B; assay: Agonism of Progesterone Receptor PR-B, transactivation assay; type: cell-based; conditions: PR-B transactivation assay as in Fuhrmann et al.
Method: Agonism of Progesterone Receptor PR-B
The transactivation assay is performed as described in Fuhrmann et al. (Fuhrmann, U.; Hess-Stump, H.; Cleve, A.; Neef, G.; Schwede, W.; Hoffmann, J.; Fritzemeier, K.-H., Chwalisz, K.; Journal of Medicinal Chem., 43, 26, 2000, 5010-5016).

| SMILES | Antagonistic activity Efficacy [1] [%] | IC50 [1] [nM] | Agonistic activity Efficacy [2] [%] | EC50 ([2]; read-out: Agonistic activity EC50) [nM] |
| --- | --- | --- | --- | --- |
| O=C1OCc2cc(NC(=O)C(O)(C#Cc3ccc(O)cc3)CC3(c4cc(C(F)(F)F)ccc4F)CC3)ccc21 (racemic) [Example 7, rac-5-{2-Hydroxy-2-[(4-hydroxyphenyl)ethinyl]-3-[1-(2-fluoro-5-trifluoromethylphenyl)-cyclopropyl]-propionylamino}phthalide] | 82 | 4 | 11 | 2 |
| CCCC#CC(O)(CC1(c2cc(C(F)(F)F)ccc2F)CC1)C(=O)Nc1ccc2c(c1)COC2=O (racemic) [Example 9, rac-5-{2-Hydroxy-3-[1-(2-fluoro-5-trifluoromethylphenyl)-cyclopropyl]-2-(pentin-1-yl)-propionylamino}phthalide] | 96 | 3 | 3 | – |
| O=C1OCc2cc(NC(=O)C(O)(C#CCO)CC3(c4cc(C(F)(F)F)ccc4F)CC3)ccc21 (racemic) [Example 13, rac-5-{2-Hydroxy-3-[1-(2-fluoro-5-trifluoromethylphenyl)-cyclopropyl]-2-[(3-hydroxy)propin-1-yl]-propionylamino}phthalide] | 92 | 3 | 7 | – |
| O=C1OCc2cc(NC(=O)C(O)(C#Cc3ccccc3)CC3(c4cc(C(F)(F)F)ccc4F)CC3)ccc21 (single isomer, unassigned; (-)) [Example 3b, (−)-5-{2-Hydroxy-3-[1-(2-fluoro-5-trifluoromethylphenyl)-cyclopropyl]-2-(phenylethinyl)-propionylamino}phthalide] | 97 | 0.4 | 2 | – |
